Measured values from paper PMC3274751 (ACS medicinal chemistry letters, 2011).

What was measured:
MeV-Alaska = assay: Viral CPE inhibition; conditions: compared with BM-1
actively dividing cells = conditions: cited from earlier work
Vero cells = assay: Cytotoxicity in Vero cells

SMILES | fold reduction of potency relative to BM-1 (MeV-Alaska) [fold] | effect on cell proliferation (actively dividing cells) | acute cytotoxicity (Vero cells)
COc1ccc(-n2c(SC(C)C(=O)Nc3cc(C)no3)nc3ccccc32)cc1 (centres unmarked) [Compound 6n] | 2 |  | 
COc1ccc(-n2c(SC(C)C(=O)Nc3nc(C)cs3)nc3ccccc32)cc1 (centres unmarked) [Compound 6m] | 10 |  | 
COc1ccc(-n2c(SC(C)C(=O)Nc3ccc(C)cc3Cl)nc3ccccc32)cc1 (centres unmarked) [Compound 6p] |  | cytostatic effect | does not display any detectable acute cytotoxicity
COc1ccc(-n2c(SC(C)C(=O)Nc3cc(C)nn3C)nc3ccccc32)cc1 (centres unmarked) [Compound 6j] | 2 |  | 
